Data published in patent US20240287154A1, “MC3R AGONIST PEPTIDES” (The Regents of the University of Michigan, priority 2021, published 2024).
Non-standard residues stand in square brackets, D forms with d. Residues, ends and D or L forms follow the SMILES beside them. Bip = N[C@@H](Cc1ccc(-c2ccccc2)cc1)C(=O)O; Phe(4-Cl) = N[C@@H](Cc1ccc(Cl)cc1)C(=O)O; Phe(4-I) = N[C@@H](Cc1ccc(I)cc1)C(=O)O; Nle = CCCC[C@H](N)C(=O)O; dAbu = CC[C@@H](N)C(=O)O; Aib = CC(C)(N)C(=O)O

target: human MC4R (Homo sapiens, UniProt P32245); assay: Intracellular cAMP levels in live cells, MC3R selectivity relative to MC4R; type: cell-based; details: cAMP assays in human MC3R and human MC4R stable cell lines
Method: The stable cell lines were grown and maintained in selection media consisting of Dulbecco's modified Eagle media (DMEM) with 4.5 g/l D-glucose, and 4 mM L-glutamine (Thermo Fisher Scientific, Waltham, MA), supplemented with 10% fetal bovine serum, 100 units/ml penicillin, 100 μg/ml streptomycin, 2.5 μg/ml amphotericin B, 200 μg/ml hygromycin B (for positive selection of the GScAMP22f luciferase reporter), and Geneticin™ (G418) 700 μg/ml (for MC3R or MC4R selection). Actual serum concentration during the assay is estimated to be about 1%. Cell line identity is routinely verified by qPCR and MC3R- and MC4R-specific oligonucleotides.
The assay for the determination of the CAMP response in live cells was described previously. […] Ccells were seeded at a density of 20,000 cells per well using 384-well poly-D lysine-coated, clear bottom, and black-wall assay plates (Corning Inc. Corning, NJ). Cells were allowed to attach to the plates for 18 to 24 h after which growth media was removed and 20 ul of 4% D-luciferin (Promega) in CO2 independent, serum-free medium (Thermo Fisher Scientific) was added to each well. […] Intracellular cAMP levels were measured using an FDSS 7000EX Functional Drug Screening System (Hamamatsu Photonics, Hamamatsu, Japan) in the Center for Chemical Genomics at the Life Sciences Institute. This instrument allowed the in-line addition of test-peptides and receptor agonists while simultaneously acquiring the luminescence signal from live cells. […] A submaximal forskolin (20 μM) concentration was also included to serve as a normalization reference to account for cell number variations and differences in assay transducer efficiency between cell lines.
With this set up it was possible to evaluate the direct agonist effect of the test-peptides on the MC3R and MC4R cell lines during measurement window 1, while the antagonist profile in the presence of EC90 α-MSH was determined on measurement window 2. […] EC50 or IC50 potency values were determined by non-linear regression by fitting the data to a sigmoid four-parameter variable slope model using the GraphPad Prism version 8.4 software package (San Diego CA).

Chain of human MC4R (P32245 whole entry): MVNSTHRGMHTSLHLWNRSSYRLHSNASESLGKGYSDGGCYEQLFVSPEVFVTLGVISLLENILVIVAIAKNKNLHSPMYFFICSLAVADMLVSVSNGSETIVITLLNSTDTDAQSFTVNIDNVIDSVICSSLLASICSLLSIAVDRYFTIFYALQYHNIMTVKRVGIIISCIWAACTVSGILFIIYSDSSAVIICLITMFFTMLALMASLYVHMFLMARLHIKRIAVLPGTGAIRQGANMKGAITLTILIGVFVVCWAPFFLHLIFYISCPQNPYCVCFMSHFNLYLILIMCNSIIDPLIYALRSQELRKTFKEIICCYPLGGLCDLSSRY

Row | SMILES | MC3R selectivity (relative to MC4R)
1 | CCCC[C@H](NC(C)=O)C(=O)N[C@H](C)C(=O)N[C@@H](Cc1c[nH]cn1)C(=O)N[C@@H](Cc1ccccc1)C(=O)N[C@@H](CCCNC(=N)N)C(=O)N[C@H](Cc1c[nH]c2ccccc12)C(=O)N[C@@H](CC(=O)O)C(N)=O [CTX-1123, Nle-D-Ala-His-Phe-Arg-D-Trp-Asp] (Ac-[Nle][dA]HFR[dW]D-NH2) | 28
2 | CCCC[C@H](NC(=O)[C@@H](NC(=O)[C@@H](N)Cc1ccc(O)cc1)C(C)C)C(=O)NC(C)(C)C(=O)N[C@@H](Cc1c[nH]cn1)C(=O)N[C@@H](Cc1ccccc1)C(=O)N[C@@H](CCCNC(=N)N)C(=O)N[C@H](Cc1c[nH]c2ccccc12)C(=O)N[C@@H](CC(=O)O)C(N)=O [CTX-1130, Tyr-Val-Nle-Aib-His-Phe-Arg-D-Trp-Asp] (H-YV[Nle][Aib]HFR[dW]D-NH2) | 58
3 | CCCC[C@H](NC(=O)[C@@H](NC(=O)[C@@H](N)Cc1ccc(O)cc1)C(C)C)C(=O)N[C@@H](C)C(=O)N[C@@H](Cc1c[nH]cn1)C(=O)N[C@@H](Cc1ccccc1)C(=O)N[C@@H](CCCNC(=N)N)C(=O)N[C@H](Cc1c[nH]c2ccccc12)C(=O)N[C@@H](CC(=O)O)C(=O)N[C@@H](CCCNC(=N)N)C(=O)N[C@@H](Cc1ccccc1)C(=O)NCC(=O)O [CTX-1133, Tyr-Val-Nle-Ala-His-Phe-Arg-D-Trp-Asp-Arg-Phe-Gly] (H-YV[Nle]AHFR[dW]DRFG-OH) | 7.4
4 | CCCC[C@H](NC(=O)[C@@H](NC(=O)[C@@H](N)Cc1ccc(O)cc1)C(C)C)C(=O)N[C@H](CC)C(=O)N[C@@H](Cc1c[nH]cn1)C(=O)N[C@@H](Cc1ccccc1)C(=O)N[C@@H](CCCNC(=N)N)C(=O)N[C@H](Cc1c[nH]c2ccccc12)C(=O)N[C@@H](CC(=O)O)C(=O)N[C@@H](CCCNC(=N)N)C(=O)N[C@@H](Cc1ccccc1)C(=O)NCC(=O)O [CTX-1135, Tyr-Val-Nle-D-Abu-His-Phe-Arg-D-Trp-Asp-Arg-Phe-Gly] (H-YV[Nle][dAbu]HFR[dW]DRFG-OH) | 667
5 | CCCC[C@H](NC(=O)[C@@H](NC(=O)[C@H](N)Cc1ccc(O)cc1)C(C)C)C(=O)N[C@H](C)C(=O)N[C@@H](Cc1c[nH]cn1)C(=O)N[C@@H](Cc1ccccc1)C(=O)N[C@@H](CCCNC(=N)N)C(=O)N[C@H](Cc1c[nH]c2ccccc12)C(=O)N[C@@H](CC(=O)O)C(N)=O [CTX-1142, D-Tyr-Val-Nle-D-Ala-His-Phe-Arg-D-Trp-Asp] (H-[dY]V[Nle][dA]HFR[dW]D-NH2) | 54
6 | CCCC[C@H](NC(C)=O)C(=O)NC(C)(C)C(=O)N[C@@H](Cc1c[nH]cn1)C(=O)N[C@@H](Cc1ccccc1)C(=O)N[C@@H](CCCNC(=N)N)C(=O)N[C@H](Cc1c[nH]c2ccccc12)C(=O)N[C@@H](CC(=O)O)C(=O)N[C@@H](CCCNC(=N)N)C(=O)N[C@@H](Cc1ccccc1)C(=O)NCC(=O)O [CTX-1143, Nle-Aib-His-Phe-Arg-D-Trp-Asp-Arg-Phe-Gly] (Ac-[Nle][Aib]HFR[dW]DRFG-OH) | 3544
7 | CCCC[C@H](NC(C)=O)C(=O)N[C@H](C)C(=O)N[C@@H](Cc1c[nH]cn1)C(=O)N[C@@H](Cc1ccccc1)C(=O)N[C@@H](CCCNC(=N)N)C(=O)N[C@H](Cc1c[nH]c2ccccc12)C(=O)N[C@@H](CC(=O)O)C(=O)N[C@@H](CCCNC(=N)N)C(=O)N[C@H](Cc1ccccc1)C(=O)NCC(=O)O [CTX-1145, Nle-D-Ala-His-Phe-Arg-D-Trp-Asp-Arg-D-Phe-Gly] (Ac-[Nle][dA]HFR[dW]DR[dF]G-OH) | 535
8 | CCCC[C@H](NC(=O)[C@@H](NC(=O)CNC(=O)COCCOCCNC(=O)CNC(=O)CCc1ccc(I)cc1)C(C)C)C(=O)N[C@H](C)C(=O)N[C@@H](Cc1c[nH]cn1)C(=O)N[C@@H](Cc1ccccc1)C(=O)N[C@@H](CCCNC(=N)N)C(=O)N[C@H](Cc1c[nH]c2ccccc12)C(=O)N[C@@H](CC(=O)O)C(=O)N[C@@H](CCCNC(=N)N)C(=O)N[C@@H](Cc1ccccc1)C(=O)NCC(=O)O [CTX-1150, Gly-Val-Nle-D-Ala-His-Phe-Arg-D-Trp-Asp-Arg-Phe-Gly] | 577
9 | CCCC[C@H](NC(=O)[C@@H](NC(=O)[C@@H](Cc1ccc(O)cc1)NC(=O)CNC(=O)COCCOCCNC(=O)CNC(=O)CCc1ccc(I)cc1)C(C)C)C(=O)N[C@H](C)C(=O)N[C@@H](Cc1c[nH]cn1)C(=O)N[C@@H](Cc1ccccc1)C(=O)N[C@@H](CCCNC(=N)N)C(=O)N[C@H](Cc1c[nH]c2ccccc12)C(=O)N[C@@H](CC(=O)O)C(=O)N[C@H](CCCNC(=N)N)C(=O)N[C@@H](Cc1ccccc1)C(=O)NCC(=O)O [CTX-1156, Gly-D-Tyr-Val Nle-D-Ala-His-Phe-Arg-D-Trp-Asp-D-Arg-Phe-Gly] | 86
10 | CCCC[C@H](NC(C)=O)C(=O)N[C@H](C)C(=O)N[C@@H](Cc1c[nH]cn1)C(=O)N[C@@H](Cc1ccccc1)C(=O)N[C@@H](CCCNC(=N)N)C(=O)N[C@H](Cc1c[nH]c2ccccc12)C(=O)N[C@@H](CC(=O)O)C(=O)N[C@@H](CCCNC(=N)N)C(=O)N[C@@H](Cc1ccccc1)C(N)=O [CTX-1158, Nle-D-Ala-His-Phe-Arg-D-Trp-Asp-Arg-Phe] (Ac-[Nle][dA]HFR[dW]DRF-NH2) | 535
11 | CCCC[C@H](NC(C)=O)C(=O)N[C@H](C)C(=O)N[C@@H](Cc1c[nH]cn1)C(=O)N[C@@H](Cc1ccccc1)C(=O)N[C@@H](CCCNC(=N)N)C(=O)N[C@H](Cc1c[nH]c2ccccc12)C(=O)N[C@@H](CC(=O)O)C(=O)N[C@@H](CCCNC(=N)N)C(=O)N[C@H](Cc1ccccc1)C(N)=O [CTX-1159, Nle-D-Ala-His-Phe-Arg-D-Trp-Asp-Arg-D-Phe] (Ac-[Nle][dA]HFR[dW]DR[dF]-NH2) | 213
12 | CCCC[C@H](NC(C)=O)C(=O)N[C@H](C)C(=O)N[C@@H](Cc1c[nH]cn1)C(=O)N[C@@H](Cc1ccccc1)C(=O)N[C@@H](CCCNC(=N)N)C(=O)N[C@H](Cc1c[nH]c2ccccc12)C(=O)N[C@@H](CC(=O)O)C(=O)N[C@@H](CCCNC(=N)N)C(=O)N[C@H](Cc1ccccc1)C(=O)N[C@@H](CCCCN)C(=O)O [CTX-1160, Nle-D-Ala-His-Phe-Arg-D-Trp-Asp-Arg-D-Phe-Lys] (Ac-[Nle][dA]HFR[dW]DR[dF]K-OH) | 1,257
13 | CCCC[C@H](NC(C)=O)C(=O)N[C@H](C)C(=O)N[C@@H](Cc1c[nH]cn1)C(=O)N[C@@H](Cc1ccccc1)C(=O)N[C@@H](CCCNC(=N)N)C(=O)N[C@H](Cc1c[nH]c2ccccc12)C(=O)N[C@@H](CC(=O)O)C(=O)N[C@@H](CCCNC(=N)N)C(N)=O [CTX-1163, Nle-D-Ala-His-Phe-Arg-D-Trp-Asp-Arg] (Ac-[Nle][dA]HFR[dW]DR-NH2) | 282
14 | CCCC[C@H](NC(C)=O)C(=O)N[C@H](C)C(=O)N[C@@H](Cc1c[nH]cn1)C(=O)N[C@@H](Cc1ccc(Cl)cc1)C(=O)N[C@@H](CCCNC(=N)N)C(=O)N[C@H](Cc1c[nH]c2ccccc12)C(=O)N[C@@H](CC(=O)O)C(=O)N[C@@H](CCCNC(=N)N)C(=O)N[C@@H](Cc1ccccc1)C(=O)NCC(=O)O [CTX-1166, Nle-D-Ala-His-Phe(4-Cl)-Arg-D-Trp-Asp-Arg-Phe-Gly] (Ac-[Nle][dA]H[Phe(4-Cl)]R[dW]DRFG-OH) | 3099
15 | CCCC[C@H](NC(C)=O)C(=O)N[C@H](C)C(=O)N[C@@H](Cc1c[nH]cn1)C(=O)N[C@@H](Cc1ccc(-c2ccccc2)cc1)C(=O)N[C@@H](CCCNC(=N)N)C(=O)N[C@H](Cc1c[nH]c2ccccc12)C(=O)N[C@@H](CC(=O)O)C(=O)N[C@@H](CCCNC(=N)N)C(=O)N[C@@H](Cc1ccccc1)C(=O)NCC(N)=O [CTX-1168, Nle-D-Ala-His-Bip-Arg-D-Trp-Asp-Arg-Phe-Gly] (Ac-[Nle][dA]H[Bip]R[dW]DRFG-NH2) | 485
16 | CCCC[C@H](NC(C)=O)C(=O)N[C@H](C)C(=O)N[C@@H](Cc1c[nH]cn1)C(=O)N[C@@H](Cc1ccc(I)cc1)C(=O)N[C@@H](CCCNC(=N)N)C(=O)N[C@H](Cc1c[nH]c2ccccc12)C(=O)N[C@@H](CC(=O)O)C(=O)N[C@@H](CCCNC(=N)N)C(N)=O [CTX-1170, Nle-D-Ala-His-Phe(4-I)-Arg-D-Trp-Asp-Arg] (Ac-[Nle][dA]H[Phe(4-I)]R[dW]DR-NH2) | 67
17 | CCCC[C@H](NC(=O)[C@@H](NC(=O)[C@H](N)Cc1ccc(O)cc1)C(C)C)C(=O)N[C@H](C)C(=O)N[C@@H](Cc1c[nH]cn1)C(=O)N[C@@H](Cc1ccc(I)cc1)C(=O)N[C@@H](CCCNC(=N)N)C(=O)N[C@H](Cc1c[nH]c2ccccc12)C(=O)N[C@@H](CC(=O)O)C(N)=O [CTX-1171, D-Tyr-Val-Nle-D-Ala-His-Phe(4-I)-Arg-D-Trp-Asp] (H-[dY]V[Nle][dA]H[Phe(4-I)]R[dW]D-NH2) | 234
